According to US9695155B2, “Herbicidal substituted pyrimidinyloxy benzene compounds” (E. I. DU PONT DE NEMOURS AND COMPANY, priority 2013, dated 2017):

What was measured:
barnyardgrass [1] = test: Test A preemergence; format: in vivo, Echinochloa crus-galli; conditions: for Barnyardgrass plant response rating (0 to 100 scale, 0 is no effect, 100 is complete control): 125 g ai/ha; for Barnyardgrass plant response rating: 500 g ai/ha, 0 to 100 scale where 0 is no effect and 100 is complete control
Summary of the method: (§1)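 Greenhouse pot test, loam/sand soil. Formulation: non-phytotoxic solvent mix plus surfactant. Pre: directed spray onto soil after sowing. Post: plants at 1–2 leaf, 2–10 cm. Rated visually vs untreated controls at ~10 d, 0 (no effect) to 100 (complete control).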

large (Lg) crabgrass [2] = test: Test A preemergence; format: in vivo, Digitaria sanguinalis; conditions: for Crabgrass, Large plant response rating (0 to 100 scale): 125 g ai/ha; for Crabgrass, Large plant response rating: 500 g ai/ha, 0 to 100 scale where 0 is no effect and 100 is complete control
Summary of the method: as §1

giant foxtail [3] = test: Test A preemergence; format: in vivo, Setaria faberii; conditions: for Foxtail, Giant plant response rating (0 to 100 scale): 125 g ai/ha; for Foxtail, Giant plant response rating: 500 g ai/ha, 0 to 100 scale where 0 is no effect and 100 is complete control
Summary of the method: as §1

morningglory [4] = test: Test A preemergence; format: in vivo, Ipomoea spp.; conditions: for Morningglory plant response rating (0 to 100 scale): 125 g ai/ha; for Morningglory plant response rating: 500 g ai/ha, 0 to 100 scale where 0 is no effect and 100 is complete control
Summary of the method: as §1

pigweed [5] = test: Test A preemergence; format: in vivo, Amaranthus retroflexus; conditions: for Pigweed plant response rating (0 to 100 scale): 125 g ai/ha; for Pigweed plant response rating: 500 g ai/ha, 0 to 100 scale where 0 is no effect and 100 is complete control
Summary of the method: as §1

velvetleaf [6] = test: Test A preemergence; format: in vivo, Abutilon theophrasti; conditions: for Velvetleaf plant response rating (0 to 100 scale): 125 g ai/ha; for Velvetleaf plant response rating: 500 g ai/ha, 0 to 100 scale where 0 is no effect and 100 is complete control
Summary of the method: as §1

wheat [7] = test: Test A preemergence; format: in vivo, Triticum aestivum; conditions: for Wheat plant response rating (0 to 100 scale): 125 g ai/ha; for Wheat plant response rating: 500 g ai/ha, 0 to 100 scale where 0 is no effect and 100 is complete control
Summary of the method: as §1

corn [8] = test: Test A preemergence; format: in vivo, Zea mays; conditions: for Corn plant response rating (0 to 100 scale): 125 g ai/ha; for Corn plant response rating: 500 g ai/ha, 0 to 100 scale where 0 is no effect and 100 is complete control
Summary of the method: as §1

barnyardgrass [9] = test: Test A postemergence; format: in vivo, Echinochloa crus-galli; conditions: 0 to 100 scale where 0 is no effect and 100 is complete control; for Barnyardgrass plant response rating: 125 g ai/ha; for Plant response rating, Barnyardgrass: 500 g ai/ha
Summary of the method: as §1

large (Lg) crabgrass [10] = test: Test A postemergence; format: in vivo, Digitaria sanguinalis; conditions: 0 to 100 scale where 0 is no effect and 100 is complete control; for Crabgrass, Large plant response rating: 125 g ai/ha; for Plant response rating, Crabgrass, Large: 500 g ai/ha
Summary of the method: as §1

giant foxtail [11] = test: Test A postemergence; format: in vivo, Setaria faberii; conditions: 0 to 100 scale where 0 is no effect and 100 is complete control; for Foxtail, Giant plant response rating: 125 g ai/ha; for Plant response rating, Foxtail, Giant: 500 g ai/ha
Summary of the method: as §1

morningglory [12] = test: Test A postemergence; format: in vivo, Ipomoea spp.; conditions: 0 to 100 scale where 0 is no effect and 100 is complete control; for Morningglory plant response rating: 125 g ai/ha; for Plant response rating, Morningglory: 500 g ai/ha
Summary of the method: as §1

pigweed [13] = test: Test A postemergence; format: in vivo, Amaranthus retroflexus; conditions: 0 to 100 scale where 0 is no effect and 100 is complete control; for Pigweed plant response rating: 125 g ai/ha; for Plant response rating, Pigweed: 500 g ai/ha
Summary of the method: as §1

velvetleaf [14] = test: Test A postemergence; format: in vivo, Abutilon theophrasti; conditions: 0 to 100 scale where 0 is no effect and 100 is complete control; for Velvetleaf plant response rating: 125 g ai/ha; for Plant response rating, Velvetleaf: 500 g ai/ha
Summary of the method: as §1

wheat [15] = test: Test A postemergence; format: in vivo, Triticum aestivum; conditions: 0 to 100 scale where 0 is no effect and 100 is complete control; for Wheat plant response rating: 125 g ai/ha; for Plant response rating, Wheat: 500 g ai/ha
Summary of the method: as §1

corn [16] = test: Test A postemergence; format: in vivo, Zea mays; conditions: 0 to 100 scale where 0 is no effect and 100 is complete control; for Corn plant response rating: 125 g ai/ha; for Plant response rating, Corn: 500 g ai/ha
Summary of the method: as §1

rice = test: Test B flooded paddy test; format: in vivo, Oryza sativa; conditions: Flood, 250 g ai/ha; 0 to 100 scale where 0 is no effect and 100 is complete control
Summary of the method: (§2)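 Plants at 2-leaf stage; pots flooded to 3 cm above soil and compound applied directly into paddy water, depth held throughout. After 13 to 15 days in greenhouse, visual rating versus controls on 0 (no effect) to 100 (complete control) scale.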

sedge, umbrella = test: Test B flooded paddy test; format: in vivo, Cyperus difformis; conditions: Flood, 250 g ai/ha; 0 to 100 scale where 0 is no effect and 100 is complete control
Summary of the method: as §2

Heteranthera limosa = test: Test B flooded paddy test; format: in vivo; conditions: Flood, 250 g ai/ha; 0 to 100 scale where 0 is no effect and 100 is complete control
Summary of the method: as §2

barnyardgrass [17] = test: Test B flooded paddy test; format: in vivo, Echinochloa crus-galli; conditions: Flood, 250 g ai/ha; 0 to 100 scale where 0 is no effect and 100 is complete control
Summary of the method: as §2

| Compound | Barnyardgrass plant response rating (0 to 100 scale, 0 is no effect, 100 is complete control) (barnyardgrass [1]) | Barnyardgrass plant response rating (barnyardgrass [1]) | Crabgrass, Large plant response rating (large (Lg) crabgrass [2]) | Foxtail, Giant plant response rating (0 to 100 scale) (giant foxtail [3]) | Foxtail, Giant plant response rating (giant foxtail [3]) | Morningglory plant response rating (0 to 100 scale) (morningglory [4]) | Morningglory plant response rating (morningglory [4]) | Pigweed plant response rating (0 to 100 scale) (pigweed [5]) | Pigweed plant response rating (pigweed [5]) | Velvetleaf plant response rating (0 to 100 scale) (velvetleaf [6]) | Velvetleaf plant response rating (velvetleaf [6]) | Wheat plant response rating (0 to 100 scale) (wheat [7]) | Wheat plant response rating (wheat [7]) | Corn plant response rating (0 to 100 scale) (corn [8]) | Corn plant response rating (corn [8]) | Barnyardgrass plant response rating (barnyardgrass [9]) | Plant response rating, Barnyardgrass (barnyardgrass [9]) | Crabgrass, Large plant response rating (large (Lg) crabgrass [10]) | Plant response rating, Crabgrass, Large (large (Lg) crabgrass [10]) | Foxtail, Giant plant response rating (giant foxtail [11]) | also measured |
| --- | --- | --- | --- | --- | --- | --- | --- | --- | --- | --- | --- | --- | --- | --- | --- | --- | --- | --- | --- | --- | --- |
| O=Cc1cccc(Oc2ncc(Br)cn2)c1-n1cc(I)cn1 [Compound 183] | 0 | 0 | 0 | 0 | 0 | 0 | 0 | 20 | 90 | 0 | 0 | 0 | 0 | 0 | 0 | 0 | 0 | 0 | 0 | 0 | Crabgrass, Large plant response rating (0 to 100 scale) (large (Lg) crabgrass [2]): 0; Plant response rating, Foxtail, Giant (giant foxtail [11]): 0; Morningglory plant response rating (morningglory [12]): 0; Plant response rating, Morningglory (morningglory [12]): 0; Pigweed plant response rating (pigweed [13]): 20; Plant response rating, Pigweed (pigweed [13]): 50; Velvetleaf plant response rating (velvetleaf [14]): 20; Plant response rating, Velvetleaf (velvetleaf [14]): 30; Wheat plant response rating (wheat [15]): 0; Plant response rating, Wheat (wheat [15]): 0; Corn plant response rating (corn [16]): 0; Plant response rating, Corn (corn [16]): 0; Plant response rating, Rice (rice): 0; Plant response rating, Sedge, Umbrella (sedge, umbrella): 0; Plant response rating, Ducksalad (Heteranthera limosa): 0; Plant response rating, Barnyardgrass (barnyardgrass [17]): 0 |
| CC#Cc1cnn(-c2ccccc2Oc2ncc(Cl)cn2)c1 [Compound 189] | 20 | 90 | 100 | 70 | 100 | 0 | 30 | 100 | 100 | 60 | 80 | 0 | 10 | 0 | 0 | 10 | 90 | 30 | 80 | 40 | Crabgrass, Large plant response rating (0 to 100 scale) (large (Lg) crabgrass [2]): 90; Plant response rating, Foxtail, Giant (giant foxtail [11]): 80; Morningglory plant response rating (morningglory [12]): 50; Plant response rating, Morningglory (morningglory [12]): 100; Pigweed plant response rating (pigweed [13]): 100; Plant response rating, Pigweed (pigweed [13]): 100; Velvetleaf plant response rating (velvetleaf [14]): 90; Plant response rating, Velvetleaf (velvetleaf [14]): 100; Wheat plant response rating (wheat [15]): 20; Plant response rating, Wheat (wheat [15]): 50; Corn plant response rating (corn [16]): 10; Plant response rating, Corn (corn [16]): 40; Plant response rating, Rice (rice): 0; Plant response rating, Sedge, Umbrella (sedge, umbrella): 70; Plant response rating, Ducksalad (Heteranthera limosa): 70; Plant response rating, Barnyardgrass (barnyardgrass [17]): 0 |
| Clc1cnc(Oc2cccc(-c3ccccc3)c2-n2cc(Br)cn2)nc1 [Compound 195] | 0 | 0 | 70 | 10 | 80 | 0 | 10 | 0 | 40 | 0 | 20 | 0 | 0 | 0 | 0 | 0 | 20 | 40 | 60 | 10 | Plant response rating, Foxtail, Giant (giant foxtail [11]): 50; Morningglory plant response rating (morningglory [12]): 30; Plant response rating, Morningglory (morningglory [12]): 70; Pigweed plant response rating (pigweed [13]): 60; Plant response rating, Pigweed (pigweed [13]): 80; Velvetleaf plant response rating (velvetleaf [14]): 50; Plant response rating, Velvetleaf (velvetleaf [14]): 100; Wheat plant response rating (wheat [15]): 0; Plant response rating, Wheat (wheat [15]): 0; Corn plant response rating (corn [16]): 0; Plant response rating, Corn (corn [16]): 20; Plant response rating, Rice (rice): 20; Plant response rating, Sedge, Umbrella (sedge, umbrella): 30; Plant response rating, Ducksalad (Heteranthera limosa): 20; Plant response rating, Barnyardgrass (barnyardgrass [17]): 0 |
| C=C(C)c1cccc(Oc2ncc(Cl)cn2)c1-n1cc(Br)cn1 [Compound 198] | 50 | 80 | 100 | 70 | 100 | 0 | 10 | 100 | 100 | 40 | 80 | 0 | 0 | 0 | 0 | 30 | 50 | 60 | 90 | 30 | Crabgrass, Large plant response rating (0 to 100 scale) (large (Lg) crabgrass [2]): 80; Plant response rating, Foxtail, Giant (giant foxtail [11]): 80; Morningglory plant response rating (morningglory [12]): 60; Plant response rating, Morningglory (morningglory [12]): 70; Pigweed plant response rating (pigweed [13]): 90; Plant response rating, Pigweed (pigweed [13]): 100; Velvetleaf plant response rating (velvetleaf [14]): 90; Plant response rating, Velvetleaf (velvetleaf [14]): 100; Wheat plant response rating (wheat [15]): 0; Plant response rating, Wheat (wheat [15]): 10; Corn plant response rating (corn [16]): 20; Plant response rating, Corn (corn [16]): 20; Plant response rating, Rice (rice): 0; Plant response rating, Sedge, Umbrella (sedge, umbrella): 20; Plant response rating, Ducksalad (Heteranthera limosa): 25; Plant response rating, Barnyardgrass (barnyardgrass [17]): 0 |
| COc1ccc(Br)c(-n2cc(Br)cn2)c1Oc1ncc(Cl)cn1 [Compound 201] | 0 | 0 | 40 | 20 | 50 | 0 | 0 | 0 | 0 | 0 | 0 | 0 | 0 | 0 | 0 | 0 | 10 | 0 | 30 | 0 | Crabgrass, Large plant response rating (0 to 100 scale) (large (Lg) crabgrass [2]): 20; Plant response rating, Foxtail, Giant (giant foxtail [11]): 40; Morningglory plant response rating (morningglory [12]): 20; Plant response rating, Morningglory (morningglory [12]): 20; Pigweed plant response rating (pigweed [13]): 20; Plant response rating, Pigweed (pigweed [13]): 40; Velvetleaf plant response rating (velvetleaf [14]): 30; Plant response rating, Velvetleaf (velvetleaf [14]): 70; Wheat plant response rating (wheat [15]): 0; Plant response rating, Wheat (wheat [15]): 0; Corn plant response rating (corn [16]): 0; Plant response rating, Corn (corn [16]): 0; Plant response rating, Rice (rice): 0; Plant response rating, Sedge, Umbrella (sedge, umbrella): 20; Plant response rating, Ducksalad (Heteranthera limosa): 40; Plant response rating, Barnyardgrass (barnyardgrass [17]): 0 |
